Our source for the neointimal proliferation and melting point values is patent US6541505B1, “Substituted (aminoiminomethyl or aminomethyl) benzoheteroaryl compounds” (Aventis Pharmaceuticals Inc., priority 1998, dated 2003).

The structures appear in SMILES notation. Where a name gives a salt, the structure may show the parent alone. A value given as a limit tells only on which side of the number the result lay.

The test system of one series is rabbit carotid artery air-drying injury model. Conditions: after vascular injury; cited from earlier work.
Regarding `CC(=N)N1CC[C@H](Oc2ccc([C@H](Cc3ccc4ccc(C(=N)N)cc4c3)C(=O)O)cc2)C1` [DX-9065a], the neointimal proliferation entry is “less neointimal proliferation”.

Test system in another series: not given
Details: not given
Compound `N=C(N)c1c[nH]c2ccc(CCNC(=O)c3ccc(-c4ccnc(NCCCCCCN5CCCC5)n4)cc3)cc12` [Example 1aaal, N-[2-(3-Carbamimidoyl-1H-indol-5-yl)ethyl]-4-[2-(6-pyrrolidin-1-yl-hexylamino)pyrimidin-4-yl]benzamide] had a melting point of 159 to 161 °C.

`CN(C)CCCOc1ccc(-c2ccc(C(=O)NCCc3ccc4[nH]cc(C(=N)N)c4c3)cc2)cn1` (as salt: salt) [Example 1aaaaab, N-[2-(3-Carbamimidoyl-1H-indol-5-yl)ethyl]-4-[6-(3-dimethylaminopropoxy)pyridin-3-yl]benzamide] returned a melting point of 84 to 86 °C. The same measure, in the same setting: under `COc1ccc(-c2ccc(C(=O)NCCc3ccc4[nH]cc(C(=N)N)c4c3)cc2)cc1OC` (as salt: salt) [Example 1o, 3′,4′-Dimethoxybiphenyl-4-carboxylic acid (2-[3-carbamimidoylindol-5-yl]ethyl)amide] stands above 250 °C; under `CN(C)CCOc1cccc(-c2ccc(C(=O)NCCc3ccc4[nH]cc(C(=N)N)c4c3)cc2)c1` [Example 1aaaas, 3′-(2-Dimethylaminoethoxy)biphenyl-4-carboxylic acid [2-(3-carbamimidoyl-1H-indol-5-yl)ethyl]amide], 99 to 101 °C. As to `CC(Oc1nccc(-c2ccc(C(=O)NCCc3ccc4[nH]cc(C(=N)N)c4c3)cc2)n1)C(N)=O` (stereo not shown) [Example 1aaaam, N-[2-(3-Carbamimidoyl-1H-indol-5-yl)ethyl]-4-[2-(1-carbamoylethoxy)pyrimidin-4-yl]benzamide], the melting point lay in the range of 159 to 161 °C. On the same count and under the same terms, under `CN(C)CCn1cc(-c2ccc(C(=O)NCCc3ccc4[nH]cc(C(=N)N)c4c3)cc2)ccc1=O` [Example 1ap, N-(2-[3-Carbamimidoylindol-5-yl]ethyl)-4-(1-[2-dimethylaminoethyl]-6-oxo-1,6-dihydropyridin-3-yl)benzamide] stands 94 to 97 °C; under `CN(C)CCNC(=O)Cn1cc(-c2ccc(C(=O)NCCc3ccc4[nH]cc(C(=N)N)c4c3)cc2)ccc1=O` [Example 1aaaaad, N-[2-(3-Carbamimidoyl-1H-indol-5-yl)-ethyl]-4-{1-[(2-dimethylaminoethylcarbamoyl)methyl]-6-oxo-1,6-dihydropyridin-3-yl}benzamide], 71 to 75 °C. The same measure, in the same setting: the value for `N=C(N)c1c[nH]c2ccc(CCNC(=O)c3ccc(-c4ccnc(OC5CCCNC5=O)n4)cc3)cc12` (stereo not shown) [Example 1aaaap, N-[2-(3-Carbamimidoyl-1H-indol-5-yl)ethyl]-4-[2-(2-oxopiperidin-3-yloxy)pyrimidin-4-yl]benzamide] was 145 to 147 °C.

`N=C(N)c1c[nH]c2ccc(CCNC(=O)c3ccc(NCCO)nc3)cc12` [Example 1z, N-(2-[3-Carbamimidoylindol-5-yl]ethyl)-6-(2-hydroxyethylamino)nicotinamide]: the melting point was 102 to 105 °C.

For the compound `N=C(N)c1c[nH]c2ccc(CCNC(=O)c3ccc(-c4cnc[nH]4)cc3)cc12` [Example 1h, N-(2-[3-Carbamimidoylindol-5-yl]ethyl)-4-(3H-imidazol-4-yl)benzamide], the melting point was 52 to 54 °C. Take `N=C(N)c1c[nH]c2ccc(CCNC(=O)c3ccc(-c4ccc(=O)n(CC(N)=O)c4)cc3)cc12` [Example 1aq, N-(2-[3-Carbamimidoylindol-5-yl]ethyl)-4-(1-carbamoylmethyl-6-oxo-1,6-dihydropyridin-3-yl)benzamide]: the melting point lay within 244 to 245 °C. Still for that read-out and setting: under `CN(C)CCCCNc1nccc(-c2ccc(C(=O)NCCc3ccc4[nH]cc(C(=N)N)c4c3)cc2)n1` (as salt: salt) [Example 1aaas, N-[2-(3-Carbamimidoyl-1H-indol-5-yl)ethyl]-4-[2-(4-dimethylaminobutylamino)pyrimidin-4-yl]benzamide] stands 156 to 159 °C. `N=C(N)c1c[nH]c2ccc(CCNC(=O)c3ccc(-c4ccnc(N5CCCC5CO)n4)cc3)cc12` (stereo not shown) (as salt: salt) [Example 1aaaj, N-[2-(3-Carbamimidoyl-1H-indol-5-yl)-ethyl]-4-[2-(2-hydroxymethylpyrrolidin-1-yl)-pyrimidin-4-yl]benzamide] registered a melting point of 117 to 120 °C.

The compound `N=C(N)c1c[nH]c2ccc(CCNC(=O)c3ccc(-c4ccnc(N5CCCC5)n4)cc3)cc12` [Example 1aaah, N-[2-(3-Carbamimidoyl-1H-indol-5-yl)-ethyl]-4-(2-pyrrolidin-1-ylpyrimidin-4-yl)benzamide] yielded a melting point of 134 to 136 °C.

`CN(C)CCOc1ccc(-c2ccc(C(=O)NCCc3ccc4[nH]cc(C(=N)N)c4c3)cc2)cn1` [Example 1aaaaaz, N-(2-[3-Carbamimidoylindol-5-yl]ethyl)-4-(6-[2-dimethylaminoethoxy]pyridin-3-yl)benzamide] gave a melting point of 57 to 59 °C. The same measure, in the same setting: under `N=C(N)c1c[nH]c2ccc(CCNC(=O)c3ccc(-c4ccnc(OCC(F)(F)F)n4)cc3)cc12` [Example 1aaag, N-[2-(3-Carbamimidoyl-1H-indol-5-yl)ethyl]-4-[2-(2,2,2-trifluoroethoxy)pyrimidin-4-yl]benzamide] stands 194 to 195 °C.

Take `N=C(N)c1c[nH]c2ccc(CCNC(=O)c3ccc(-n4cccn4)nc3)cc12` [Example 1ac, N-(2-[3-Carbamimidoylindol-5-yl]ethyl)-6-pyrazol-1-ylnicotinamide]: the melting point was in the range of 235 to 236 °C. On the same count and under the same terms, the value for `CN(C)CCOc1ccccc1-c1ccc(C(=O)NCCc2ccc3[nH]cc(C(=N)N)c3c2)cc1` [Example 1aaaau, 2′-(2-Dimethylaminoethoxy)biphenyl-4-carboxylic acid [2-(3-carbamimidoyl-1H-indol-5-yl)ethyl]amide] was 73 to 76 °C; that for `N=C(N)c1c[nH]c2ccc(CCNC(=O)c3ccc(-c4cccnc4)cc3)cc12` [Example 1a, N-(2-[3-Carbamimidoyl-5-indolyl]ethyl)-4-pyrid-3-ylbenzamide] was 55 to 58 °C.

The compound `N=C(N)c1c[nH]c2ccc(CCNC(=O)c3ccc(-c4ccnc(OCCN5CCCC5)n4)cc3)cc12` (as salt: salt) [Example 1aaaaq, N-[2-(3-Carbamimidoyl-1H-indol-5-yl)ethyl]-4-[2-(2-pyrrolidin-1-yl-ethoxy)pyrimidin-4-yl]benzamide] returned a melting point of 104 to 105 °C. Consider `CN(C)CCCCCCNc1nccc(-c2ccc(C(=O)NCCc3ccc4[nH]cc(C(=N)N)c4c3)cc2)n1` (as salt: salt) [Example 1aaar, N-[2-(3-Carbamimidoyl-1H-indol-5-yl)ethyl]-4-[2-(6-dimethylaminohexylamino)pyrimidin-4-yl]benzamide], for which the melting point was in the range of 89 to 91 °C.
